Reference: patent US7378419B2, “9-amino-podophyllotoxin derivatives, method for the production thereof and pharmaceutical compositions containing said derivatives” (Les Laboratoires Servier, priority 2003, dated 2008)
One block for each compound: values may come before it.

Key:
A549 = assay: In vitro cytotoxicity, microculture tetrazolium assay, A549; type: cell-based; conditions: A549 human pulmonary carcinoma, not small cell, 48 hours exposure
Procedure: (§1) Six cell lines were used: • 1 murine leukemia: L1210 • 1 human epidermal carcinoma: KB-3-1 • 1 human pulmonary carcinoma, not small cell: A549 • 1 melanoma: A375 • 1 neuroblastoma: SK-N-MC • 1 fibrosarcoma: HT1080
(§2) The cells are cultivated in complete RPMI 1640 culture medium containing 10% of fetal calf serum, 2 mM of glutamine, 50 U/ml of penicillin, 50 μg/ml of streptomycin and 10 mM of Hepes, pH: 7.4. The cells are distributed in microplates and exposed to cytotoxic compounds for 4 doubling times, which is 48 hours. The number of viable cells is then quantified by a […] assay, the microculture tetrazolium assay (J. Carmichael et al., Cancer Res.; 47, 936-942, (1987)). The results are expressed as IC50, the cytotoxic concentration that inhibits the proliferation of the treated cells by 50%.

P388 leukemia = assay: In vivo anti-tumor activity on P388 leukemia; conditions: P388, 50 mg/kg, intravenously on day 1, female BDF1 mice
Procedure: The P388 line (murine leukemia) was provided by the National Cancer Institute (Frederick, Md., USA). The tumor cells (10^6 cells) were inoculated on day 0 in the peritoneal cavity of female BDF1 mice (Iffa-Credo, France) weighing from 18 to 20 g (groups of 6 animals). The products were administered intravenously on day 1.
(§3) The anti-tumor activity is expressed in T/C %: T/C%=(median survival time of the treated animals)/(median survival time of the control animals)×100

KB-3-1 = assay: In vitro cytotoxicity, microculture tetrazolium assay, KB-3-1; type: cell-based; conditions: KB-3-1 human epidermal carcinoma, 48 hours exposure
Procedure: as §1, §2

[1] = system: A549 human pulmonary carcinoma; assay: In vivo anti-tumor activity on A549 human pulmonary carcinoma; conditions: A549, 3.12 mg/kg
Text: *Anti-Tumor Activity of the Compounds on P388 Leukemia and on A549 Human Pulmonary Carcinoma:
as §3

A375 = assay: In vitro cytotoxicity, microculture tetrazolium assay, A375; type: cell-based; conditions: Homo sapiens, A-375; A375 melanoma, 48 hours exposure
Procedure: as §1, §2

L1210 cells = assay: Action on the cell cycle (G2+M accumulation); type: cell-based, murine; conditions: L1210, after 21 hours, concentration of 250 nM (control: 20%)
Procedure: The L1210 cells are incubated for 21 hours at 37° C. in the presence of various concentrations of the products tested. The cells then are fixed with 70% ethanol (v/v), washed twice in PBS and incubated for 30 minutes at 20° C. in PBS containing 100 μg/ml of RNase and 50 μg/ml of propidium iodide. The results are expressed as a percentage of cells accumulated in phase G2+M after 21 hours compared to the control (control: 20%). The compounds of examples 2 and 4 induce an accumulation of 70% and 81%, respectively, of the cells in phase G2+M after 21 hours at a concentration of 250 nM.

L1210 = assay: In vitro cytotoxicity, microculture tetrazolium assay, L1210; type: cell-based; conditions: L1210 murine leukemia, 48 hours exposure
Procedure: as §1, §2

HT1080 = assay: In vitro cytotoxicity, microculture tetrazolium assay, HT1080; type: cell-based; conditions: Homo sapiens, HT-1080; HT1080 fibrosarcoma, 48 hours exposure
Procedure: as §1, §2

SK-N-MC = assay: In vitro cytotoxicity, microculture tetrazolium assay, SK-N-MC; type: cell-based; conditions: Homo sapiens; SK-N-MC neuroblastoma, 48 hours exposure
Procedure: as §1, §2

Compound: COc1cc([C@@H]2c3cc4c(cc3[C@@H](NC3=CC(=O)N(Cc5ccc(F)cc5)C3=O)[C@H]3COC(=O)[C@H]23)OCO4)cc(OC)c1O[Si](C)(C)C(C)(C)C
- melting point: 182 to 184 °C

Compound: COc1cc([C@@H]2c3cc4c(cc3[C@@H](NC3=CC(=O)N(Cc5ccc(C(F)(F)F)cc5)C3=O)[C@H]3COC(=O)[C@H]23)OCO4)cc(OC)c1O
- melting point: 184 to 186 °C

Compound: COc1cc([C@@H]2c3cc4c(cc3[C@@H](NC3=CC(=O)N(Cc5ccc(NC(C)=O)cc5)C3=O)[C@H]3COC(=O)[C@H]23)OCO4)cc(OC)c1O[Si](C)(C)C(C)(C)C
- melting point: 177 to 179 °C

Compound: COc1cc([C@@H]2c3cc4c(cc3[C@@H](NC3=CC(=O)N(C)C3=O)[C@H]3COC(=O)[C@H]23)OCO4)cc(OC)c1O [Example 2, 3-{[(5S,5aS,8aR,9R)-9-(4-Hydroxy-3,5-dimethoxyphenyl)-8-oxo-5,5a,6,8,8a,9-hexahydrofuro[3′,4′:6,7]naphtho[2,3-d][1,3]dioxol-5-yl]amino}-1-methyl-1H-pyrrole-2,5-dione]
- IC50 (A549): 0.11 µM
- T/C (median survival time treated/control x 100) (P388 leukemia): > 575%
- animals surviving as of day 60 (P388 leukemia): 50%
- IC50 (KB-3-1): 0.0666 µM
- T/C [1]: 225%
- IC50 (A375): 0.0442 µM
- percentage of cells accumulated in phase G2+M (L1210 cells): 70%
- IC50 (L1210; Mus musculus): 0.054 µM
- IC50 (HT1080): 0.0758 µM
- IC50 (SK-N-MC): 0.106 µM

Compound: COc1cc([C@@H]2c3cc4c(cc3[C@@H](NC3=CC(=O)N(Cc5ccccc5)C3=O)[C@H]3COC(=O)[C@H]23)OCO4)cc(OC)c1O [Example 4, 3-{[(5S,5aS,8aR,9R)-9-(4-Hydroxo-3,5-dimethoxyphenyl)-8-oxo-5,5a,6,8,8a,9-hexahydrofuro[3′,4′:6,7]naphtho[2,3-d][1,3]dioxol-5-yl]amino}-1-benzyl-1H-pyrrole-2,5-dione]
- percentage of cells accumulated in phase G2+M (L1210 cells): 81%
- IC50 (L1210): 0.029 µM

Second part, the compound after the results:

- melting point: 200 to 204 °C (dec.)
Compound: COc1cc([C@@H]2c3cc4c(cc3[C@@H](NC3=CC(=O)N(Cc5ccc(NC(C)=O)cc5)C3=O)[C@H]3COC(=O)[C@H]23)OCO4)cc(OC)c1O

- melting point: 150 to 152 °C
Compound: COc1cc([C@@H]2c3cc4c(cc3[C@@H](NC3=CC(=O)N(CCCCCC(=O)O)C3=O)[C@H]3COC(=O)[C@H]23)OCO4)cc(OC)c1O

- melting point: 172 to 176 °C
Compound: COc1cc([C@@H]2c3cc4c(cc3[C@@H](NC3=C(C)C(=O)N(C)C3=O)[C@H]3COC(=O)[C@H]23)OCO4)cc(OC)c1O

- melting point: 180 to 183 °C
Compound: C=CCN1C(=O)C=C(N[C@@H]2c3cc4c(cc3[C@@H](c3cc(OC)c(O)c(OC)c3)[C@H]3C(=O)OC[C@@H]32)OCO4)C1=O

- melting point: 214 to 216 °C
Compound: COc1cc([C@@H]2c3cc4c(cc3[C@@H](NC3=CC(=O)N(Cc5ccc(F)cc5)C3=O)[C@H]3COC(=O)[C@H]23)OCO4)cc(OC)c1O
